Results as given in patent US20240310368A1, “DETECTION KIT FOR CATECHOLAMINES AND METABOLITES THEREOF IN PLASMA/URINE AND DETECTION METHOD THEREOF” (Calibra Scientific, Inc., priority 2023, published 2024).
Where “and” joins values, the source holds several entries; their conditions need not be identical. Equal values may be shown once.

Legend:
[1] = Stability of ascorbic acid and glutathione in stabilizers accelerated at 37° C. for 14 days against an unaccelerated stabilizer; assay type: physicochemical; settings: for stability of ascorbic acid and glutathione in stabilizers after acceleration: 37° C. for 14 days (equivalent to 1 year at 2-8° C.); for Relative deviation %: after acceleration at 37° C. for 14 days vs new formulations
Experimental: Stabilizers (Example 1) were accelerated at 37° C. for 14 days (equivalent to 1 year at 2-8° C.) and then compared with an unaccelerated stabilizer.

[2] = Acceleration test of plasma samples with stabilizers (30° C. for 1.5 days, against control plasma stored at −95° C. to −65° C.), LC-MS/MS Area/IS Area
Experimental: Samples were collected in EDTA-anticoagulant blood collection tubes and then rapidly subjected to […] centrifugation at 2-8° C. to separate plasma. 0.95 mL of the plasma was transferred into centrifuge tubes. After 50 μL of the stabilizer was added for uniform mixing, the plasma samples were stored by refrigeration or freezing.
• (1) 500 μL of plasma/urine samples to be tested were taken, and 50 μL of the internal standard solution and 500 μL of the buffer solution were sequentially added for vertex mixing to obtain diluted samples. • (2) The magnetic medium composite material suspension was subjected to full vortex treatment to reach a suspension state, and then subsequent operation was performed. • (3) Different reagents were added into wells of a preprocessing plate according to the follow operation: adding 200 μL of the magnetic medium composite material suspension in column 1, adding 500 μL of the balance solution in column 2, adding 850 μL of the diluted samples in column 3, adding 500 μL of the balance solution in column 4, adding 200 μL of a rinsing solution in column 5, and adding 100 μL of the elution solution in column 6. • (4) An extraction operation procedure was carried out, as shown in Table 5.
Each group of the plasma samples were stored at 30° C. for 1.5 days, and plasma without addition of any compounds stored at −95° C. to −65° C. was used as a control. […] The stabilizing effect of the single-component stabilizers on the plasma samples was investigated.
The stabilizers were mixed with plasma (the volume ratio of the stabilizers to plasma samples was 1:19), and high concentration plasma samples and low concentration plasma samples were prepared by the method provided in Example 1.
With plasma stored at −95° C. to −65° C. as a control, the above plasma samples were separately stored at 30° C. for 1.5 days to investigate the stability. […]

[3] = Stabilizing effect of accelerated stabilizers (37° C., 14 days) on standard products and quality control products then accelerated at 30° C. for 2 days; assay type: physicochemical; settings: for Relative deviation %: 2 days at 30° C. vs Control; for concentration in standard products and quality control products, 2 days at 30° C. / concentration in standard products and quality control products, Control: single replicates
Experimental: Standard products of epinephrine, norepinephrine, dopamine, metanephrine, normetanephrine and 3-methoxytyramine were prepared into mixed solutions, and blank plasma containing a stabilizer was used as a matrix to prepare standard products and quality control products.
(§1) In the present example, the stabilizing effect of the stabilizers on plasma samples, standard products and quality control products after acceleration was further verified. The stabilizers were accelerated at 37° C. for 14 days (equivalent to 1 year at 2-8° C.), added into the plasma samples in proportions and then accelerated at 30° C. for 1.5 days (equivalent to 12 months at −30° C. to −15° C.). The stabilizers were accelerated at 37° C. for 14 days (equivalent to 1 year at 2-8° C.), added into the standard products and the quality control products in proportions and then accelerated at 30° C. for 2 days (equivalent to 18 months at −30° C. to −15° C.).

[4] = Stabilizing effect of accelerated stabilizers (37° C., 14 days) on plasma samples then accelerated at 30° C. for 1.5 days; assay type: physicochemical, human; settings: for Relative deviation %: Accelerate vs Control; for concentration in plasma samples, Control / concentration in plasma samples, Accelerate: single replicates; for concentration in plasma samples, Accelerate: stabilizer accelerated 37° C. 14 days, plasma then accelerated at 30° C. for 1.5 days
Experimental: as §1

[5] = After acceleration (stabilizer of Example 1, 37° C. for 14 days)
[6] = New formulations (unaccelerated stabilizer of Example 1)
[7] = plasma at a high concentration level, plasma containing 50 μg/mL of the component, control plasma 0.624
[8] = plasma at a high concentration level, plasma containing 50 μg/mL of the component, control plasma 1.522
[9] = plasma at a high concentration level, plasma containing 50 μg/mL of the component, control plasma 2.27
[10] = plasma at a high concentration level, plasma containing 200 μg/mL of the component, control plasma 0.624
[11] = plasma at a high concentration level, plasma containing 200 μg/mL of the component, control plasma 1.522
[12] = plasma at a high concentration level, plasma containing 200 μg/mL of the component, control plasma 2.27
[13] = plasma at a low concentration level, plasma containing 50 μg/mL of the component, control plasma 0.079
[14] = plasma at a low concentration level, plasma containing 50 μg/mL of the component, control plasma 0.219
[15] = plasma at a low concentration level, plasma containing 50 μg/mL of the component, control plasma 0.233
[16] = plasma at a low concentration level, plasma containing 200 μg/mL of the component, control plasma 0.079
[17] = plasma at a low concentration level, plasma containing 200 μg/mL of the component, control plasma 0.219
[18] = plasma at a low concentration level, plasma containing 200 μg/mL of the component, control plasma 0.233
[19] = samples at a high concentration level
[20] = samples at a low concentration level

SMILES | Relative deviation % ([3]; High concentration level) [%] | average concentration, 2 days at 30° C. ([3]; High concentration level) [pg/mL] | concentration in standard products and quality control products, 2 days at 30° C. ([3]; High concentration level) | average concentration, Control ([3]; High concentration level) [pg/mL] | concentration in standard products and quality control products, Control ([3]; High concentration level) | Relative deviation % ([3]; Low concentration level) [%] | average concentration, 2 days at 30° C. ([3]; Low concentration level) [pg/mL] | concentration in standard products and quality control products, 2 days at 30° C. ([3]; Low concentration level) | average concentration, Control ([3]; Low concentration level) [pg/mL] | concentration in standard products and quality control products, Control ([3]; Low concentration level) | Relative deviation % ([3]; Medium concentration level) [%] | average concentration, 2 days at 30° C. ([3]; Medium concentration level) [pg/mL] | concentration in standard products and quality control products, 2 days at 30° C. ([3]; Medium concentration level) | average concentration, Control ([3]; Medium concentration level) [pg/mL] | concentration in standard products and quality control products, Control ([3]; Medium concentration level) | Relative deviation % [4, 19] [%] | concentration in plasma samples, Control [4, 19] | concentration in plasma samples, Accelerate [4, 19] | Relative deviation % [4, 20] [%] | concentration in plasma samples, Control [4, 20] | further results
N[C@@H](CCC(=O)N[C@@H](CS)C(=O)NCC(=O)O)C(=O)O [glutathione] | – | – | – | – | – | – | – | – | – | – | – | – | – | – | – | – | – | – | – | – | stability of ascorbic acid and glutathione in stabilizers after acceleration [1]: maintained stable; Area [1, 5]: 7.45E+04 and 7.62E+04 and 8.98E+04; Area [1, 6]: 8.44E+04; Relative deviation % [1]: −5.0%; Ratio (Area/IS Area) E [2, 7]: 0; Ratio (Area/IS Area) NE [2, 8]: 0; Ratio (Area/IS Area) DA [2, 9]: 0; Ratio (Area/IS Area) E [2, 10]: 0; Ratio (Area/IS Area) NE [2, 11]: 0; Ratio (Area/IS Area) DA [2, 12]: 0; Ratio (Area/IS Area) E [2, 13]: 0; Ratio (Area/IS Area) NE [2, 14]: 0; Ratio (Area/IS Area) DA [2, 15]: 0; Ratio (Area/IS Area) E [2, 16]: 0; Ratio (Area/IS Area) NE [2, 17]: 0; Ratio (Area/IS Area) DA [2, 18]: 0
O=C1O[C@H]([C@@H](O)CO)C(O)=C1O [ascorbic acid] | – | – | – | – | – | – | – | – | – | – | – | – | – | – | – | – | – | – | – | – | stability of ascorbic acid and glutathione in stabilizers after acceleration [1]: maintained stable; Area [1, 5]: 6.96E+05 and 6.32E+05 and 6.08E+05; Area [1, 6]: 6.88E+05 and 7.26E+05 and 6.96E+05; Relative deviation % [1]: −8.2%; Ratio (Area/IS Area) E [2, 7]: 0; Ratio (Area/IS Area) NE [2, 8]: 0; Ratio (Area/IS Area) DA [2, 9]: 0; Ratio (Area/IS Area) E [2, 10]: 0.048; Ratio (Area/IS Area) NE [2, 11]: 0; Ratio (Area/IS Area) DA [2, 12]: 0; Ratio (Area/IS Area) E [2, 13]: 0; Ratio (Area/IS Area) NE [2, 14]: 0; Ratio (Area/IS Area) DA [2, 15]: 0; Ratio (Area/IS Area) E [2, 16]: 0; Ratio (Area/IS Area) NE [2, 17]: 0; Ratio (Area/IS Area) DA [2, 18]: 0
COc1cc(C(O)CN)ccc1O (centres unmarked) [NMN] | −3.68 | 1910.2 | 1.89388 ng/mL and 1.85479 ng/mL and 1.98193 ng/mL | 1983.21 | 2.00785 ng/mL and 1.95209 ng/mL and 1.98969 ng/mL | 1.41 | 24.2 | 0.02503 ng/mL and 0.02506 ng/mL and 0.0225 ng/mL | 23.86 | 0.02255 ng/mL and 0.02588 ng/mL and 0.02315 ng/mL | 1.5 | 405.18 | 0.39387 ng/mL and 0.42435 ng/mL and 0.39731 ng/mL | 399.18 | 0.39333 ng/mL and 0.41828 ng/mL and 0.38593 ng/mL | 2.1 | 0.97087 ng/mL and 0.85456 ng/mL and 0.85498 ng/mL | 0.91096 ng/mL and 0.88464 ng/mL and 0.94153 ng/mL | 1.7 | 0.17577 ng/mL and 0.16472 ng/mL and 0.17242 ng/mL | concentration in plasma samples, Accelerate [4, 20]: 0.17659 ng/mL and 0.17047 ng/mL and 0.17436 ng/mL
COc1cc(CCN)ccc1O [Group 3-MT] | −3.54 | 1001.8 | 1.00258 ng/mL and 0.99459 ng/mL and 1.00823 ng/mL | 1038.58 | 1.01486 ng/mL and 1.01865 ng/mL and 1.08223 ng/mL | −8.93 | 10.93 | 0.01106 ng/mL and 0.01049 ng/mL and 0.01124 ng/mL | 12 | 0.01245 ng/mL and 0.01066 ng/mL and 0.0129 ng/mL | −4.98 | 182.01 | 0.16702 ng/mL and 0.19198 ng/mL and 0.18703 ng/mL | 191.55 | 0.19324 ng/mL and 0.19663 ng/mL and 0.18479 ng/mL | −2.0 | 0.38458 ng/mL and 0.38086 ng/mL and 0.37856 ng/mL | 0.35799 ng/mL and 0.37926 ng/mL and 0.38345 ng/mL | 0.6 | 0.06389 ng/mL and 0.06483 ng/mL and 0.06347 ng/mL | concentration in plasma samples, Accelerate [4, 20]: 0.06307 ng/mL and 0.062 ng/mL and 0.06825 ng/mL
NCCc1ccc(O)c(O)c1 [DA] | 0.3 | 1485.59 | 1.46403 ng/mL and 1.43079 ng/mL and 1.56195 ng/mL | 1481.12 | 1.46201 ng/mL and 1.49448 ng/mL and 1.48688 ng/mL | −0.29 | 17.86 | 0.01762 ng/mL and 0.01837 ng/mL and 0.01758 ng/mL | 17.91 | 0.01722 ng/mL and 0.0181 ng/mL and 0.01841 ng/mL | −2.2 | 294.46 | 0.2821 ng/mL and 0.31535 ng/mL and 0.28595 ng/mL | 301.09 | 0.30826 ng/mL and 0.30148 ng/mL and 0.29352 ng/mL | −2.0 | 0.55903 ng/mL and 0.52998 ng/mL and 0.57132 ng/mL | 0.55049 ng/mL and 0.5487 ng/mL and 0.52712 ng/mL | −0.8 | 0.0743 ng/mL and 0.09053 ng/mL and 0.08768 ng/mL | concentration in plasma samples, Accelerate [4, 20]: 0.08786 ng/mL and 0.07829 ng/mL and 0.08442 ng/mL
